Data: the NIST ThermoML archive (doi:10.1016/j.fluid.2013.11.028)
Numbers after ± are expanded uncertainties.

Tests used:
[1] = 101 kPa, Liquid, Vibrating tube method
[2] = wn = mass fraction of the nth substance listed; conditions: 101 kPa, Liquid; for viscosity: Falling or rolling sphere viscometry; for binary diffusion coefficient: Taylor dispersion method; for mass density: Vibrating tube method

NCCNCCN [di(2-aminoethyl)amine]
[1]
Conditions | mass density [kg/m3]
303.15 K | 942.1 ± 1.2
308.15 K | 937.9 ± 1.2
313.15 K | 933.8 ± 1.2
318.15 K | 929.6 ± 1.2
323.15 K | 925.5 ± 1.2

CN(C)CCN(C)C [N,N,N',N'-tetramethyl-1,2-diaminoethane] + O
[2]
Conditions | binary diffusion coefficient [m2/s] | mass density [kg/m3] | viscosity [mPa·s]
303.15 K, w1 = 0 | 7.34e-10 | – | –
303.15 K, w1 = 0.1 | 5.61e-10 | 982.9 ± 1 | 1.34 ± 0.029
303.15 K, w1 = 0.2 | 4.62e-10 | 972.6 ± 1 | 2.338 ± 0.052
303.15 K, w1 = 0.3 | 3.74e-10 | 962.1 ± 1 | 3.963 ± 0.087
303.15 K, w1 = 0.4 | 3.12e-10 | 947.8 ± 1 | 6.207 ± 0.14
303.15 K, w1 = 1 | – | 767.3 ± 1 | –
308.15 K, w1 = 0 | 8.35e-10 | – | –
308.15 K, w1 = 0.1 | 6.29e-10 | 981 ± 1 | 1.179 ± 0.025
308.15 K, w1 = 0.2 | 5.25e-10 | 970 ± 1 | 1.983 ± 0.043
308.15 K, w1 = 0.3 | 4.4e-10 | 958.6 ± 1 | 3.243 ± 0.07
308.15 K, w1 = 0.4 | 3.66e-10 | 943.7 ± 1 | 4.925 ± 0.11
308.15 K, w1 = 1 | – | 762.9 ± 1 | –
313.15 K, w1 = 0 | 9.38e-10 | – | –
313.15 K, w1 = 0.1 | 7.16e-10 | 979 ± 1 | 1.046 ± 0.023
313.15 K, w1 = 0.2 | 5.74e-10 | 967.3 ± 1 | 1.704 ± 0.037
313.15 K, w1 = 0.3 | 4.91e-10 | 955.1 ± 1 | 2.705 ± 0.059
313.15 K, w1 = 0.4 | 4.25e-10 | 939.5 ± 1 | 3.941 ± 0.086
313.15 K, w1 = 1 | – | 759.1 ± 1 | –
318.15 K, w1 = 0 | 1.05e-09 | – | –
318.15 K, w1 = 0.1 | 8.01e-10 | 976.7 ± 1 | 0.933 ± 0.02
318.15 K, w1 = 0.2 | 6.38e-10 | 964.4 ± 1 | 1.481 ± 0.032
318.15 K, w1 = 0.3 | 5.53e-10 | 951.5 ± 1 | 2.287 ± 0.049
318.15 K, w1 = 0.4 | 4.61e-10 | 935.3 ± 1 | 3.205 ± 0.07
318.15 K, w1 = 1 | – | 754.7 ± 1 | –
323.15 K, w1 = 0 | 1.18e-09 | – | –
323.15 K, w1 = 0.1 | 9.51e-10 | 974.3 ± 1 | 0.839 ± 0.018
323.15 K, w1 = 0.2 | 7.5e-10 | 961.4 ± 1 | 1.301 ± 0.028
323.15 K, w1 = 0.3 | 6.29e-10 | 947.8 ± 1 | 1.96 ± 0.042
323.15 K, w1 = 0.4 | 5.31e-10 | 931 ± 1 | 2.682 ± 0.058
323.15 K, w1 = 1 | – | 750.3 ± 1 | –

CN(C)CCCN(C)C [N,N,N',N'-tetramethyl-1,3-propanediamine]
[1]
Conditions | mass density [kg/m3]
303.15 K | 774.8 ± 1.1
308.15 K | 770.9 ± 1.1
313.15 K | 767.4 ± 1.1
318.15 K | 765 ± 1.1
323.15 K | 761.4 ± 1.1

CNCCCN [N-methyl-1,3-diaminopropane] + O
[2]
Conditions | binary diffusion coefficient [m2/s] | mass density [kg/m3] | viscosity [mPa·s]
303.15 K, w1 = 0 | 8.45e-10 | – | –
303.15 K, w1 = 0.1 | 7.35e-10 | 988.5 ± 1 | 1.231 ± 0.027
303.15 K, w1 = 0.2 | 6.87e-10 | 983.9 ± 1 | 2.005 ± 0.044
303.15 K, w1 = 0.3 | 6.4e-10 | 980.7 ± 1 | 3.41 ± 0.075
303.15 K, w1 = 0.4 | 6.08e-10 | 975.9 ± 1 | 5.515 ± 0.12
303.15 K, w1 = 1 | – | 849.1 ± 1 | –
308.15 K, w1 = 0 | 9.56e-10 | – | –
308.15 K, w1 = 0.1 | 8.63e-10 | 986.7 ± 1 | 1.09 ± 0.023
308.15 K, w1 = 0.2 | 7.69e-10 | 981.6 ± 1 | 1.731 ± 0.037
308.15 K, w1 = 0.3 | 7.26e-10 | 977.7 ± 1 | 2.823 ± 0.061
308.15 K, w1 = 0.4 | 6.92e-10 | 972.2 ± 1 | 4.451 ± 0.097
308.15 K, w1 = 1 | – | 844.7 ± 1 | –
313.15 K, w1 = 0 | 1.05e-09 | – | –
313.15 K, w1 = 0.1 | 9.36e-10 | 984.7 ± 1 | 0.976 ± 0.021
313.15 K, w1 = 0.2 | 8.72e-10 | 979.1 ± 1 | 1.512 ± 0.033
313.15 K, w1 = 0.3 | 8.25e-10 | 974.5 ± 1 | 2.391 ± 0.052
313.15 K, w1 = 0.4 | 7.77e-10 | 968.4 ± 1 | 3.66 ± 0.08
313.15 K, w1 = 1 | – | 840.3 ± 1 | –
318.15 K, w1 = 0 | 1.18e-09 | – | –
318.15 K, w1 = 0.1 | 1.05e-09 | 982.6 ± 1 | 0.887 ± 0.019
318.15 K, w1 = 0.2 | 9.72e-10 | 976.4 ± 1 | 1.333 ± 0.029
318.15 K, w1 = 0.3 | 9.22e-10 | 971.3 ± 1 | 2.059 ± 0.044
318.15 K, w1 = 0.4 | 8.73e-10 | 964.6 ± 1 | 2.979 ± 0.065
318.15 K, w1 = 1 | – | 835.9 ± 1 | –
323.15 K, w1 = 0 | 1.31e-09 | – | –
323.15 K, w1 = 0.1 | 1.18e-09 | 980.2 ± 1 | 0.808 ± 0.017
323.15 K, w1 = 0.2 | 1.09e-09 | 973.7 ± 1 | 1.184 ± 0.025
323.15 K, w1 = 0.3 | 1.03e-09 | 967.9 ± 1 | 1.769 ± 0.038
323.15 K, w1 = 0.4 | 9.77e-10 | 960.7 ± 1 | 2.525 ± 0.055
323.15 K, w1 = 1 | – | 831.5 ± 1 | –

CN(C)CCN(C)C [N,N,N',N'-tetramethyl-1,2-diaminoethane]
[1]
Conditions | mass density [kg/m3]
303.15 K | 767.3 ± 1
308.15 K | 762.9 ± 1
313.15 K | 759.1 ± 1
318.15 K | 754.7 ± 1
323.15 K | 750.3 ± 1
